Measurements reported in US8182815B2, “Fibroblast growth factor receptor-3 (FGFR-3) inhibitors and methods of treatment” (ImClone, LLC, priority 2008, dated 2012).
Blank lines part the entries; values can stand above or below the compound they belong to.

Experiments:
RT4 tumor = test: RT4 xenograft, combination with cisplatin; details: Antibody 1 40 mg/kg three times weekly, cisplatin MTD
Description: (§1) The therapeutic benefit of combining cisplatin with FGFR-3 antibody in three bladder xenograft models is explored. Develop RT112, RT4 and BFTC905 xenograft tumor models by routine methods in which 1-20 million tumor cells mixed with 0-100% Matrigel are injected subcutaneously to each female athymic nude mouse. Start antibody treatment once the mean volume of the subcutaneous tumors is approximately 400 mm^2. […] Measure tumor volumes 3 times weekly until the end of the studies.
Conduct RM ANOVO statistical test.

RT-112 tumor = test: RT112 xenograft, combination with cisplatin; details: Antibody 1 40 mg/kg three times weekly, cisplatin MTD
Description: as §1
Conduct RM ANOVO statistical test.

BFTC-905 tumor = test: BFTC905 xenograft, combination with cisplatin; details: Antibody 1 40 mg/kg three times weekly, cisplatin MTD
Description: as §1
Conduct RM ANOVO statistical test.

[1] = target: T1, FGFR-3 (K650E) in OPM-2 cells (Homo sapiens, UniProt P22607, K650E); test: FGFR-3 receptor degradation in OPM-2 cells (western blot); type: cell-based; details: 37° C., Antibody 1 30 ug/ml, FGF-1 30 ng/ml
T1 construct: endogenous in cells; host or cells: OPM-2
Description: OPM-2 is a cell line originally isolated from cancer cells of multiple myeloma. OPM-2 cells are known to express FGFR-3 receptors harboring a gain-of-function K650E point mutation. Quiesce the OPM-2 cells in low serum culture media (0.1% FBS) for overnight. The next day, divide these cells into 5 groups. Group 1 is lysed immediately, and the lysate is kept at −20° C. until the time of western blot analysis. This group is therefore designated as Time 0 hr sample. Group 2-5 each has 3 samples of equal size, named as Sample A, B and C of Group 2, 3, 4, and 5. Samples A of Group 2-5 are not subjected to any further treatment, but are incubated at 37° C. Samples B of Group 2-5 are treated with 30 ng/ml FGF-1 at 37° C. […] All samples of Group 2 are lysed after 1 hr of treatment, and the lysates are kept at −20° C. until the time of western blot analysis. This group is designated as the Time 1 hr samples. All samples of Group 3 are lysed after 4 hr of treatment, and the lysates are kept at −20° C. until the time of western blot analysis. This group is designated as the Time 4 hr samples. All samples of Group 4 are lysed after 8 hr of treatment, and the lysates are kept at −20° C. until the time of western blot analysis. This group is designated as Time 8 hr samples. All samples of Group 5 are lysed after 24 hr of treatment, and the lysates are kept at −20° C. until the time of western blot analysis. This group is designated as Time 24 hr samples. When all lysates are ready, they are subjected to SDS-PAGE followed by Western Blot experiment. The FGFR-3 signals of Group 1 and all samples of Group 2 are similar. […] In Group 5, the FGFR-3 signal of Sample A is lower than that of group 1; yet signals of Samples B and C are nearly absent.

RT112 cells = test: RT112 cell proliferation assay (3H-thymidine incorporation); type: cell-based, human; details: 1 nM exogenous FGF-1, 48 hours
Description: Quiesce monolayer RT112 cells in low serum culture media (0.1% fetal bovine serum, 5 μg/mL heparin) for 24-72 hrs. Divide cells into 4 samples. Add FBS (Fetal Bovine Serum) to Sample 1 to the final concentration of 10% (V:V). Leave Sample 2 in the starving media. Add FGF-1 to Sample 3 to the final concentration of 1 nM. […] Next, add FGF-1 to the final concentration of 1 nM. After preparing Samples 1-4 as described above, incubate the samples in a tissue culture incubator set at 37° C. and with 5% CO2 (v:v) for 48 hours. Detect cell growth using standard ^3H-thymidine incorporation, assays. Tumor cell growth is doubled when RT112 cells […] are stimulated with 1 nM exogenous FGF-1.

T1 sequence (P22607 23-806 K650E): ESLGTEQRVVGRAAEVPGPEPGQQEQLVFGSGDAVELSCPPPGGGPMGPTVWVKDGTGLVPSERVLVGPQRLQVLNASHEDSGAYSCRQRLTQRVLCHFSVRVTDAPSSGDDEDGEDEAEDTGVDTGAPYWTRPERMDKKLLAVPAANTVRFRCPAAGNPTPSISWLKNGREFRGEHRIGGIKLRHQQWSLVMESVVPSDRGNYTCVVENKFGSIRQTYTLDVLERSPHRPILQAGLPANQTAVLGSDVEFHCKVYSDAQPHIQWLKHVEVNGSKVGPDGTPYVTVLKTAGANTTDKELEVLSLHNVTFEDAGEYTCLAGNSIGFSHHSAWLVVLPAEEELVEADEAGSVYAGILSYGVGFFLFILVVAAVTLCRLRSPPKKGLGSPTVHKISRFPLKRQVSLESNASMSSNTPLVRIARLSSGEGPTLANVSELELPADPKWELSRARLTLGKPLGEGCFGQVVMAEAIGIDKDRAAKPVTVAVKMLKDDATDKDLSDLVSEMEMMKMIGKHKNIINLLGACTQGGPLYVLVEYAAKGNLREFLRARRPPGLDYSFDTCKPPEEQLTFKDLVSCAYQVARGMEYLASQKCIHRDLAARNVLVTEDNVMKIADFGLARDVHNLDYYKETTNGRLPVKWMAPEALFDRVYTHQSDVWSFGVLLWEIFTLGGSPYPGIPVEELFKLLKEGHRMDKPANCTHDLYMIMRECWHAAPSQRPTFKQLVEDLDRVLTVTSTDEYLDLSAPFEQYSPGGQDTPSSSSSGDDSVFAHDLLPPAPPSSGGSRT

Compound: N.N.[Cl][Pt][Cl] [Cisplatin, cisplatin, reference compound]
- RT4 Tumor Volumes, Average (RT4 tumor; Day 1): 195.4 mm^3
- RT4 Tumor Volumes, Average (RT4 tumor; Day 8): 253.4 mm^3
- RT4 Tumor Volumes, Average (RT4 tumor; Day 15): 374.0 mm^3
- RT4 Tumor Volumes, Average (RT4 tumor; Day 22): 511.9 mm^3
- RT4 Tumor Volumes, Average (RT4 tumor; Day 29): 675.8 mm^3
- RT4 Tumor Volumes, Average (RT4 tumor; Day 36): 840.5 mm^3
- RT4 Tumor Volumes, Average (RT4 tumor; Day 42): 1024.5 mm^3
- RT-112 Tumor Volumes, Average (RT-112 tumor; Day 1): 175.7 mm^3
- RT-112 Tumor Volumes, Average (RT-112 tumor; Day 8): 245.1 mm^3
- RT-112 Tumor Volumes, Average (RT-112 tumor; Day 15): 360.8 mm^3
- RT-112 Tumor Volumes, Average (RT-112 tumor; Day 22): 578.8 mm^3
- RT-112 Tumor Volumes, Average (RT-112 tumor; Day 29): 739.4 mm^3
- RT-112 Tumor Volumes, Average (RT-112 tumor; Day 36): 881.6 mm^3
- RT-112 Tumor Volumes, Average (RT-112 tumor; Day 42): 1115.9 mm^3
- BFTC-905 Tumor Volumes, Average (BFTC-905 tumor; Day 0): 192.1 mm^3
- BFTC-905 Tumor Volumes, Average (BFTC-905 tumor; Day 3): 211.4 mm^3
- BFTC-905 Tumor Volumes, Average (BFTC-905 tumor; Day 7): 243.4 mm^3
- BFTC-905 Tumor Volumes, Average (BFTC-905 tumor; Day 14): 286.7 mm^3
- BFTC-905 Tumor Volumes, Average (BFTC-905 tumor; Day 21): 395.0 mm^3
- BFTC-905 Tumor Volumes, Average (BFTC-905 tumor; Day 28): 511.6 mm^3
- BFTC-905 Tumor Volumes, Average (BFTC-905 tumor; Day 35): 615.5 mm^3
- BFTC-905 Tumor Volumes, Average (BFTC-905 tumor; Day 42): 829.6 mm^3

- FGFR-3 signal compared with Time 0 hr (Group 1) ([1]; Time 1 hr): similar
- FGFR-3 signal compared with Time 0 hr (Group 1) ([1]; Time 4 hr): significantly lower
- FGFR-3 signal compared with Time 0 hr (Group 1) ([1]; Time 8 hr): significantly lower
- FGFR-3 signal compared with Time 0 hr (Group 1) ([1]; Time 24 hr): nearly absent
Compound: FGF-1: recombinant human FGF ligand, known to induce FGFR degradation
- tumor cell growth on stimulation (RT112 cells): doubled
